For one assay, the system named is Iba-1. Put plainly: LPS in vivo model: brain microgliosis by Iba-1 immunofluorescence. More on the design: species or system mouse. The note with it: 20 mg·kg^-1 i.p.; 4 and 24 h after LPS. As to the method:
Immunofluorescence labelling in in vitro and in vivo samples was performed as described in [Luengo, Enrique et al. "Implication of type 4 NADPH oxidase (NOX4) in tauopathy." Redox biology vol. 49 (2022): 102210. doi:10.1016/j.redox.2021.102210 ].
Example 2.3.1. Treatment with Compound 1 reduces LPS-induced cytokine expression and release in mouse brain. Mice were treated i.p. with a daily dose of 20 mg·kg^-1 of Compound 1 for 4 consecutive days. On the last day, LPS (0.5 mg·kg^-1) was injected i.p. one h after the compound. Thereafter, behavioural, and biochemical outcomes were analysed at different time points.
Example 2.3.2. Treatment with Compound 1 reduces LPS-induced microgliosis in mouse brain. Microglial cells constitute the immune cells of our brain; therefore, they play a key role in regulating neuroinflammation. Microgliosis was evaluated using Iba-1 as a microglial marker in immunofluorescence experiments 4 h and 24 h after the inflammatory stimuli (LPS).

Assay [1] concerns HEK-293 FRET biosensor containing tau repeating domains. Put plainly: Tau seeding assay in HEK-293 tau FRET biosensor cells. The format is cell-based. The note with it: Tg4510 mouse brain homogenate as aggregant stimulus; increasing concentrations. As to the method: • Figure 1. Compound 1 reduces the inflammatory response against LPS in vitro. (A) Nitric oxide (NO) production in BV2 cells detected by DAF 24 h after LPS exposure and normalized by cell viability measured by MTT (n = 9). (B) qRT-PCR of TNFα (n = 9) in BV2 cells after 24 h LPS exposure. Sulforaphane (Sfn) was used as a positive control. […] Compound 1 decreases the inflammatory process 4 and 24 hours after LPS administration in vivo. Compound 1 (20 mg·kg^-1) daily was injected i.p. four days before the i.p. LPS (0.5 mg·kg^-1) administration. […] Compound 1 ameliorates the resolution of the inflammatory process triggered by LPS. […] (B) Locomotion activity measured by line crossings of an imaginary grid. […] Compound 1 reduced tau seeding in HEK-293 tau FRET biosensor measured by flow cytometer (C). […] Representative images of hyperphosphorylated tau intensity measured by AT8 and AT180 antibodies in three different regions of the hippocampus (GD, CA3 and CA1) (n = 11-12). (B) Quantification AT8 intensity, normalized to CA3 intensity of Sham animals. (C) Quantification of AT180 intensity, normalized to CA3 intensity of Sham animals (n = 9-12). […] Quantification of sarkosyl soluble (n = 10) (C) and insoluble species (D) using AT8 antibody (n = 10). Quantification of sarkosyl soluble (n = 10) (E) and insoluble species (F) using AT180 antibody (n = 10). […]

The subject of assay [2] is mouse cytokines, chemokines, and growth factors. Briefly: LPS in vivo model: multiplex assay of brain cytokines and chemokines (Luminex xMAP). Particulars: 20 mg·kg^-1 i.p. As to the method:
• Figure 1. Compound 1 reduces the inflammatory response against LPS in vitro. (A) Nitric oxide (NO) production in BV2 cells detected by DAF 24 h after LPS exposure and normalized by cell viability measured by MTT (n = 9). (B) qRT-PCR of TNFα (n = 9) in BV2 cells after 24 h LPS exposure. Sulforaphane (Sfn) was used as a positive control. […] Compound 1 decreases the inflammatory process 4 and 24 hours after LPS administration in vivo. Compound 1 (20 mg·kg^-1) daily was injected i.p. four days before the i.p. LPS (0.5 mg·kg^-1) administration. […] Compound 1 ameliorates the resolution of the inflammatory process triggered by LPS. Multiplex assay of cytokines 4 h (A) and 24 h (B) after the proinflammatory stimuli (n = 5). […] Compound 1 reverts brain microgliosis triggered by LPS. Representative images of brain microglia 4 h and 24 h after the proinflammatory stimuli (A). Mean intensity of IBA-1 per cell 4 h (n = 10) and 24 h (n = 7, except n = 6 LPS + Compound 1) after LPS injection (B). […] Sub-chronical Compound 1 administration improves behavioural parameters in LPS treated mice. Compound 1 (20 mg·kg^-1) was injected once a day via i.p. four days before the i.p. LPS (0.5 mg·kg^-1) administration, thereafter behavioural tests were conducted. (A) Mice weight change (T0 and T24: saline n = 17, LPS n = 17, LPS + Compound 1 n = 19, T4 and T8 saline n = 8, LPS n = 7, LPS + Compound 1 n = 8). (B) Locomotion activity measured by line crossings of an imaginary grid. (C) Scheme of NOR test. (D) Discrimination index (DI) of the mice studied: saline (n = 16), LPS (n = 9) and LPS + Compound 1 (n = 13). […] Compound 1 reduces hyperphosphorylated tau species and tau seeding in vitro. Compound 1 reduces hyperphosphorylated tau levels (AT8) in primary neuronal cultures of mice after 8 days of AVV-hTauP301L treatment. Dimethyl fumarate was used as a positive control (DMF). (A) Representative images, AT8 is shown in green and Map2, marker of neurons, is shown in white. […] Compound 1 reduced tau seeding in HEK-293 tau FRET biosensor measured by flow cytometer (C). Tg4510 mouse brain homogenate was used as aggregant stimuli. […] Data represent mean ± SEM. • Figure 7. Compound 1 reduces hyperphosphorylated tau species in adult mice with hTauP301L tauopathy after 35 days oral administration (50 mg/kg/day). (A). Representative images of hyperphosphorylated tau intensity measured by AT8 and AT180 antibodies in three different regions of the hippocampus (GD, CA3 and CA1) (n = 11-12). (B) Quantification AT8 intensity, normalized to CA3 intensity of Sham animals. (C) Quantification of AT180 intensity, normalized to CA3 intensity of Sham animals (n = 9-12). […] Compound 1 reduces insoluble forms of hyperphosphorylated tau species in adult mice with hTauP301L tauopathy after 35 days oral administration (50 mg/kg/day). (A). Representative images of WB against AT8 and (B) AT180 antibodies of sarkosyl solule and insoluble protein species. Quantification of sarkosyl soluble (n = 10) (C) and insoluble species (D) using AT8 antibody (n = 10). Quantification of sarkosyl soluble (n = 10) (E) and insoluble species (F) using AT180 antibody (n = 10). […] Compound 1 prevents cognitive decline in spatial memory behavioural paradigms in adult mice with hTauP301L tauopathy after 35 days oral administration (20 mg/kg or 50 mg/kg/day). (A) Representation of T-maze alternation test and (B) Object Location test (OLT). (C) Average percentage of success in seven independent attempts (n = 14-19). (D) Discrimination index in the OLT assay (AAV-eGFP, n = 15; AAV-hTau, n = 10; AAV-hTau + Compound 1 at 20 mg/kg, n = 5; AAV-hTau + Compound 1 at 50 mg/kg, n = 8). […] Compound 1 reduces hyperphosphorylated tau species and improves cognitive behaviour in aged (16-18 months old) mice with hTauP301L tauopathy after 35 days oral administration (50 mg/kg/day). (A). Representative images of hyperphosphorylated tau intensity measured by AT8 and AT180 antibodies in three different regions of the hippocampus (GD, CA3 and CA1) (n = 12). […]

This is an account of results in patent EP4467137A1, “TREATMENT OF FRONTOTEMPORAL DEMENTIA OR FRONTOTEMPORAL LOBAR DEMENTIA” (Universidad Autónoma de Madrid, priority 2023, dated 2024).

Structures are written as SMILES.

Take `COc1ccc2c(c1)CC(c1c[nH]c3ccc(OC)cc13)N2` (stereo not shown) [Compound 1, 5-Methoxy-3-(5-methoxyindolin-2-yl)-1H-indole]: the “mean fluorescence intensity of Iba-1 per cell” value in the assay on Iba-1 is “restored to saline levels”. The “tau seeding (integrated FRET density)” value in assay [1] is listed as “reduce tau seeding ability following a concentration dependent effect”. Besides, in assay [2] (4 and 24 h after LPS), the IP10 result is given as “decreased significantly”, the KC result was “decreased significantly”, the MIP2 result is listed as “decreased significantly” and the RANTES result is reported as “decreased significantly”. Besides, in assay [2] (4 h after LPS), the IL-6 in brain entry is “marked reduction”, the IL-7 in brain entry is listed as “marked reduction” and the MCP-1 entry is “decreased significantly”. Besides, the “Additional cytokines (Figure 3)” value in assay [2] (4 h and 24 h after LPS, most of them) is “decreased with compound treatment”. For the same compound, in assay [2] (24 h after LPS), the IL-6 in brain result was “restored to basal conditions” and the IL-7 in brain entry is recorded as “restored to basal conditions”. For the same compound, in assay [2] (after LPS), the “granulocyte-colony stimulating factor (G-CSF) brain levels” value is listed as “significantly reduced”.
